Measured values: patent publication US6972296B2, “Carboxylic acid derivatives that inhibit the binding of integrins to their receptors” (Encysive Pharmaceuticals Inc., priority 1999, dated 2005)

Biological target: T1, α4β1 integrin (Homo sapiens, UniProt P05556+P13612)
T1 construct: endogenous in cells; host or cells: Ramos cells
Assay: Adhesion of calcein-labeled Ramos cells to CS1 (fibronectin) peptide conjugated ovalbumin
Type: cell-based
Conditions: Ramos cell adhesion to CS1 conjugated ovalbumin
In short: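 Plates bearing CS1 fibronectin peptide coupled to ovalbumin (0.5 μg/ml coat, 3% BSA block) received calcein-labelled Ramos cells plus compound (100 μM stated) for 30 min at 37 °C. Buffer was TBS pH 7.5 with 1 mM Mg2+, Ca2+, Mn2+; bound cells quantified by fluorescence after lysis; […].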

[1] = Table 5, dose required to give 50% inhibition
[2] = Table 7, dose required to give 50% inhibition

T1 sequence (P13612 34-1032): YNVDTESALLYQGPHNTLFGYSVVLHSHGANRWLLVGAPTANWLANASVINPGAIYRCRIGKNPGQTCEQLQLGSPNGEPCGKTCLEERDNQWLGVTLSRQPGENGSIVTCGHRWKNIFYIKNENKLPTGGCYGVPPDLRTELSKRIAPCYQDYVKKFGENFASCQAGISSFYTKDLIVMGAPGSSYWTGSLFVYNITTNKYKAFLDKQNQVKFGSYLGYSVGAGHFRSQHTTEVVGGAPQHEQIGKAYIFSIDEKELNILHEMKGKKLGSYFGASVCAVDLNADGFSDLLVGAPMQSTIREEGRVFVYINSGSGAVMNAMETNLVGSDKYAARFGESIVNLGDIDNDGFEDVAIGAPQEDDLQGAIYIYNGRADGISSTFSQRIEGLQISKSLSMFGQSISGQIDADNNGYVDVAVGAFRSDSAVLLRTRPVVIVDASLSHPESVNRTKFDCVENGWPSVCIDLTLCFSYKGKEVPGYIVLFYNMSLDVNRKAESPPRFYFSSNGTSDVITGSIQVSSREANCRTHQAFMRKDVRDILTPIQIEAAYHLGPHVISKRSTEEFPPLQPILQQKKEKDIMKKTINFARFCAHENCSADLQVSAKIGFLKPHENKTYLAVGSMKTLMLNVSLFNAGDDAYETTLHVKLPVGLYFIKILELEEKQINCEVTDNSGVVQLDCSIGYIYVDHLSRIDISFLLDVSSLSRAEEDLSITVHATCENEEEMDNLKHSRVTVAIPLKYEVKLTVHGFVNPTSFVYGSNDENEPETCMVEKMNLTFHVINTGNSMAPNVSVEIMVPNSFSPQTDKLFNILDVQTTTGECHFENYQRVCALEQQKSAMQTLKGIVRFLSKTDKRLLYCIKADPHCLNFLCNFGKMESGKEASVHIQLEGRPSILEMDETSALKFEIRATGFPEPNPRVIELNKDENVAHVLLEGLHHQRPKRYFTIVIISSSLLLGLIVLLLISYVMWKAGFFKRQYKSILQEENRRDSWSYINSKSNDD
T1 sequence (P05556 21-798): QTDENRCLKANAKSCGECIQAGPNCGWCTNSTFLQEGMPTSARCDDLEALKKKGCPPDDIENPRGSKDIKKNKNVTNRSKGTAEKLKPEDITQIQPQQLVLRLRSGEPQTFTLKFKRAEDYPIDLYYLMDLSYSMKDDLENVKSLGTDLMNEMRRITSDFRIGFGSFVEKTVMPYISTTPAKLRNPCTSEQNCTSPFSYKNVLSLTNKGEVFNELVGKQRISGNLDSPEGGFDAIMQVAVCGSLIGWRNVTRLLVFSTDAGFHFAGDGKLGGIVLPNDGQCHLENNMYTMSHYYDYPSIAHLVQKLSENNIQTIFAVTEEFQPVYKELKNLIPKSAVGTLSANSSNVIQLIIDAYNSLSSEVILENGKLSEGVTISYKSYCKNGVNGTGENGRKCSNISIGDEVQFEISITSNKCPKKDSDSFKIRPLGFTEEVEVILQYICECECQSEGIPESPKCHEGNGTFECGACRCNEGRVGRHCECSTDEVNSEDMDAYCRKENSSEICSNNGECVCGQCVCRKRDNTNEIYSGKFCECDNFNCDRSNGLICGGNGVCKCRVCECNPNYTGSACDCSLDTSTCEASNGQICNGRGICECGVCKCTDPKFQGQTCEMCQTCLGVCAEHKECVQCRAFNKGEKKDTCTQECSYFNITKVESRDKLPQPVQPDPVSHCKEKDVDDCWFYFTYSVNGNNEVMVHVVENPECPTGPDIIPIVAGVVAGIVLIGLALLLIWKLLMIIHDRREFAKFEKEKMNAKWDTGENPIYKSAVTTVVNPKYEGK

Cc1ccc([C@H](CC(=O)O)NC(=O)Nc2cccn(Cc3cccc(C(C)(C)C)c3O)c2=O)cc1
IC50 [1]: 4000 nM

O=C(O)C[C@H](NC(=O)Nc1cccn(CCCOc2ccccc2)c1=O)c1ccc2c(c1)OCO2
IC50 (Table 4, 30 minutes at 37° C.): 14000 nM

O=C(O)C[C@H](NC(=O)Nc1cccn(Cc2cccs2)c1=O)c1ccc(F)cc1
IC50 (Table 4, 30 minutes at 37° C.): 1600 nM

Cc1ccc([C@H](CC(=O)O)NC(=O)Nc2cccn(Cc3ccccc3Br)c2=O)cc1
IC50 (Table 4, 30 minutes at 37° C.): 50 nM

Cc1ccc([C@H](CC(=O)O)NC(=O)Nc2cccn(Cc3ccc(C(F)(F)F)cc3F)c2=O)cc1
IC50 (Table 4, 30 minutes at 37° C.): 3000 nM

O=C(O)C[C@H](NC(=O)Nc1c(O)c2c(n(Cc3ccccc3Cl)c1=O)CCC2)c1ccc(C(F)(F)F)cc1
IC50 [2]: 18 nM

Cc1ccc([C@H](CC(=O)O)NC(=O)Nc2c(O)ccn(Cc3c(Cl)cccc3Cl)c2=O)cc1
IC50 [1]: 13 nM

Cc1ccc([C@H](CC(=O)O)NC(=O)Nc2cccn(Cc3cc(N)ccc3Br)c2=O)cc1
IC50 (Table 4, 30 minutes at 37° C.): 80 nM

O=C(O)CC(NC(=O)Nc1c(O)ccn(Cc2ccccc2Cl)c1=O)c1cccc(Cl)c1 (centres unmarked)
IC50 (Table 3, 30 minutes at 37° C.): 30 nM | IC50 (Table 4, 30 minutes at 37° C.): 30 nM

COc1cccc(Cn2ccc(O)c(NC(=O)N[C@@H](CC(=O)O)c3ccc(C)cc3)c2=O)c1
IC50 [1]: 40 nM

CCOc1cccc(Cl)c1Cn1cc(C)c(O)c(NC(=O)NC(CC(=O)O)c2ccc(S(C)(=O)=O)cc2)c1=O (centres unmarked)
IC50 [2]: 8 nM

Cc1ccc([C@H](CC(=O)O)NC(=O)Nc2cccn(Cc3c(F)cccc3Cl)c2=O)cc1
IC50 (Table 4, 30 minutes at 37° C.): 100 nM

CCOc1cccc(Cl)c1Cn1cc(C2CC2)c(O)c(NC(=O)N[C@@H](CC(=O)O)c2cccc(OC(C)C)c2)c1=O [(3S)-3-[({[1-(2-chloro-6-ethoxybenzyl)-5-cyclopropyl-4-hydroxy-2-oxo-1,2-dihydropyridin-3-yl]amino}carbonyl)amino]-3-(3-isopropoxyphenyl)propanoic acid]
IC50 [2]: 3 nM

Cc1ccc([C@H](CC(=O)O)NC(=O)Nc2c(O)ccn(Cc3c(F)cccc3Cl)c2=O)cc1 [(3S)-3-{[({1-[(2-chloro-6-fluorophenyl)methyl]-4-hydroxy-2-oxo-1,2-dihydro-3-pyridinyl}amino)carbonyl]amino}-3-(4-methylphenyl)propanoic acid]
IC50 (Table 3, 30 minutes at 37° C.): 10 nM

Cc1ccc([C@H](CC(=O)O)NC(=O)Nc2cccn(Cc3cc(Cl)ccc3Cl)c2=O)cc1
IC50 (Table 4, 30 minutes at 37° C.): 150 nM

COc1cc([C@H](CC(=O)O)NC(=O)Nc2c(O)ccn(Cc3ccccc3Cl)c2=O)ccc1C [(3S)-3-[({[1-(2-chlorobenzyl)-4-hydroxy-2-oxo-1,2-dihydropyridin-3-yl]amino}carbonyl)amino]-3-(3-methoxy-4-methylphenyl)propanoic acid]
IC50 [1]: 3 nM

CCCCN(C(=O)N[C@@H](CC(=O)O)c1ccc2c(c1)OCO2)c1cccn(Cc2cccs2)c1=O
IC50 (Table 2, 30 minutes at 37° C.): 20000 nM

Cc1ccc([C@H](CC(=O)O)NC(=O)Nc2c(O)ccn(Cc3ccccc3)c2=O)cc1
IC50 (Table 4, 30 minutes at 37° C.): 30 nM

CCCCc1cn(Cc2ccccc2Cl)c(=O)c(NC(=O)N[C@@H](CC(=O)O)c2ccc(C)cc2)c1O
IC50 [1]: 25 nM

Cc1ccc([C@H](CC(=O)O)NC(=O)Nc2c(O)ccn(Cc3cc(F)ccc3Cl)c2=O)cc1
IC50 [1]: 14 nM

Cc1ccc([C@H](CC(=O)O)NC(=O)Nc2c(O)c(C)c(C)n(Cc3ccccc3Cl)c2=O)cc1 [(3S)-3-[({[1-(2-chlorobenzyl)-4-hydroxy-5,6-dimethyl-2-oxo-1,2-dihydropyridin-3-yl]amino}carbonyl)amino]-3-(4-methylphenyl)propanoic acid]
IC50 [1]: 6 nM

CCOc1ccc([C@H](CC(=O)O)NC(=O)Nc2c(O)ccn(Cc3ccccc3Cl)c2=O)cc1
IC50 (Table 4, 30 minutes at 37° C.): 20 nM

Cc1ccc([C@H](CC(=O)O)NC(=O)Nc2c(O)c(C)c(C)n(Cc3ccccc3Cl)c2=O)cc1C
IC50 (Table 6, 30 minutes at 37° C.): 40 nM

Cc1ccc([C@H](CC(=O)O)NC(=O)Nc2c(Nc3ccccn3)ccn(Cc3ccccc3Cl)c2=O)cc1
IC50 (Table 3, 30 minutes at 37° C.): 15 nM

Cc1ccc([C@H](CC(=O)O)NC(=O)Nc2cccn(Cc3ccccc3C(F)(F)F)c2=O)cc1
IC50 (Table 4, 30 minutes at 37° C.): 1000 nM

O=C(O)C[C@H](NC(=O)Nc1c(O)c2c(n(Cc3ccccc3Cl)c1=O)CCC2)c1cccc(C(F)F)c1
IC50 [2]: 4 nM

COc1ccc(Cn2ccc(O)c(NC(=O)N[C@@H](CC(=O)O)c3ccc(C)cc3)c2=O)cc1
IC50 [1]: 20 nM

Cc1ccc([C@@H](CC(=O)O)NC(=O)Nc2c(O)ccn(Cc3ccccc3Cl)c2=O)cc1
IC50 [1]: 300 nM

Cc1ccc([C@H](CC(=O)O)NC(=O)Nc2c(O)ccn(Cc3ccccc3Cl)c2=O)cc1C [(3S)-3-[({[1-(2-chlorobenzyl)-4-hydroxy-2-oxo-1,2-dihydropyridin-3-yl]amino}carbonyl)amino]-3-(3,4-dimethylphenyl)propanoic acid]
IC50 [1]: 5 nM

Cc1cn(Cc2ccccc2Cl)c(=O)c(NC(=O)NC(CC(=O)O)c2ccc(S(C)(=O)=O)cc2)c1O (centres unmarked)
IC50 [2]: 134 nM

Cc1cc(C)cc([C@H](CC(=O)O)NC(=O)Nc2c(O)ccn(Cc3ccccc3Cl)c2=O)c1 [(3S)-3-{[({1-[(2-chlorophenyl)methyl]-4-hydroxy-2-oxo-1,2-dihydro-3-pyridinyl}amino)carbonyl]amino}-3-(3,5-dimethylphenyl)propanoic acid]
IC50 (Table 3, 30 minutes at 37° C.): 15 nM

Cc1ccc([C@H](CC(=O)O)NC(=O)Nc2c(O)ccn(Cc3ccccc3S(C)(=O)=O)c2=O)cc1
IC50 [1]: 35 nM

CCOc1ccc(Cl)c(Cl)c1Cn1c2c(c(O)c(NC(=O)N[C@@H](CC(=O)O)c3cccc(OC(C)C)c3)c1=O)CCC2
IC50 [2]: 5 nM

Cc1ccc(Cn2cccc(NC(=O)N[C@@H](CC(=O)O)c3ccc4c(c3)OCO4)c2=O)cc1
IC50 (Table 4, 30 minutes at 37° C.): 1000 nM

O=C(O)CC(NC(=O)Nc1c(O)ccn(Cc2ccccc2Cl)c1=O)c1ccc2ccccc2n1 (centres unmarked)
IC50 (Table 6, 30 minutes at 37° C.): 105 nM

Cc1cn(Cc2ccccc2Cl)c(=O)c(NC(=O)N[C@@H](CC(=O)O)c2ccccc2F)c1O
IC50 [2]: 10 nM

O=C(O)C[C@H](NC(=O)Nc1c(O)ccn(Cc2ccccc2Cl)c1=O)c1ccc2c(c1)OCCO2 [(3S)-3-[({[1-(2-chlorobenzyl)-4-hydroxy-2-oxo-1,2-dihydropyridin-3-yl]amino}carbonyl)amino]-3-(2,3-dihydro-1,4-benzodioxin-6-yl)propanoic acid]
IC50 [1]: 10 nM

CC(C)Cc1cccc([C@H](CC(=O)O)NC(=O)Nc2c(O)c3c(n(Cc4ccccc4Cl)c2=O)CCC3)c1
IC50 [2]: 15 nM

Cc1cn(Cc2ccccc2Cl)c(=O)c(NC(=O)N[C@@H](CC(=O)O)c2ccccc2)c1O
IC50 [2]: 15 nM

CCc1ccc([C@H](CC(=O)O)NC(=O)Nc2c(O)c3c(n(Cc4ccccc4Cl)c2=O)CCC3)cc1
IC50 [2]: 8 nM

Cc1ccc([C@H](CC(=O)O)NC(=O)Nc2cccn(Cc3csc(C)n3)c2=O)cc1
IC50 (Table 4, 30 minutes at 37° C.): 1000 nM

COc1cc([C@H](CC(=O)O)NC(=O)Nc2cccn(Cc3ccccc3Cl)c2=O)cc(OC)c1OC
IC50 (Table 4, 30 minutes at 37° C.): 40 nM

Cc1ccc([C@H](CC(=O)O)NC(=O)Nc2c(O)c(C)cn(Cc3c(C)cccc3Cl)c2=O)cc1C
IC50 (Table 6, 30 minutes at 37° C.): 45 nM

Cc1ccc(-c2cccc([C@H](CC(=O)O)NC(=O)Nc3c(O)c(C)cn(Cc4ccccc4Cl)c3=O)c2)cc1
IC50 [2]: 23 nM

CCCc1ccc([C@H](CC(=O)O)NC(=O)Nc2c(O)c3c(n(Cc4ccccc4Cl)c2=O)CCC3)cc1
IC50 [2]: 17 nM

CCN(c1cccc([C@H](CC(=O)O)NC(=O)Nc2c(O)c3c(n(Cc4ccccc4Cl)c2=O)CCC3)c1)S(C)(=O)=O [(3S)-3-{[({1-[(2-chlorophenyl)methyl]-4-hydroxy-2-oxo-2,5,6,7-tetrahydro-1H-cyclopenta[b]pyridin-3-yl}amino)carbonyl]amino}-3-{3-[ethyl(methylsulfonyl)amino]phenyl}propanoic acid]
IC50 [2]: 1 nM

Cc1ccc([C@H](CC(=O)O)NC(=O)Nc2c(Nc3ccccc3)ccn(Cc3ccccc3Cl)c2=O)cc1
IC50 (Table 3, 30 minutes at 37° C.): 20 nM

O=C(O)C[C@H](NC(=O)Nc1cccn(Cc2cccs2)c1=O)c1ccccc1
IC50 (Table 4, 30 minutes at 37° C.): 1000 nM

Cc1ccc([C@H](CC(=O)O)NC(=O)Nc2c(O)c(C)cn(Cc3c(Cl)cccc3OCC(C)C)c2=O)cc1
IC50 [2]: 22 nM

COc1ccc(Cl)c(Cn2cccc(NC(=O)N[C@@H](CC(=O)O)c3ccc(C)cc3)c2=O)c1
IC50 [1]: 90 nM

CCOc1cccc([C@H](CC(=O)O)NC(=O)Nc2c(O)c3c(n(Cc4c(C)cccc4Cl)c2=O)CCC3)c1 [(3S)-3-[({[1-(2-chloro-6-methylbenzyl)-4-hydroxy-2-oxo-2,5,6,7-tetrahydro-1H-cyclopenta[b]pyridin-3-yl]amino}carbonyl)amino]-3-(3-ethoxyphenyl)propanoic acid]
IC50 (Table 6, 30 minutes at 37° C.): 4 nM

O=C(O)C[C@H](NC(=O)Nc1c(O)c2c(n(Cc3ccccc3Cl)c1=O)CCC2)c1cc(C(F)(F)F)cc(C(F)(F)F)c1
IC50 [2]: 130 nM

Cc1ccc([C@H](CC(=O)O)NC(=O)Nc2c(O)c3c(n(Cc4ccccc4Cl)c2=O)CCCC3)cc1
IC50 [1]: 20 nM

CCOc1cccc(Cl)c1Cn1c(C)c(CC)c(O)c(NC(=O)N[C@@H](CC(=O)O)c2ccc(C)cc2)c1=O
IC50 [2]: 4 nM

CCc1ccn(Cc2ccccc2Cl)c(=O)c1NC(=O)N[C@@H](CC(=O)O)c1ccc(C)cc1 [(3S)-3-{[({1-[(2-chlorophenyl)methyl]-4-ethyl-2-oxo-1,2-dihydro-3-pyridinyl}amino)carbonyl]amino}-3-(4-methylphenyl)propanoic acid]
IC50 (Table 3, 30 minutes at 37° C.): 10 nM

CC(C)(C)c1ccc([C@H](CC(=O)O)NC(=O)Nc2cccn(Cc3cccs3)c2=O)cc1
IC50 (Table 4, 30 minutes at 37° C.): 2000 nM

Cc1ccccc1NC(=O)Nc1ccc(CN2CCC[C@H](NC(=O)N[C@@H](CC(=O)O)c3ccc4c(c3)OCO4)C2=O)cc1
IC50 (Table 2, 30 minutes at 37° C.): 0.3 nM

O=C(O)C[C@H](NC(=O)Nc1c(O)c2c(n(Cc3ccccc3Cl)c1=O)CCC2)c1cccc(OC2CCCC2)c1
IC50 [2]: 7 nM

Cc1ccc([C@H](CC(=O)O)NC(=O)Nc2c(O)ccn(Cc3ccc(F)cc3)c2=O)cc1
IC50 [1]: 22 nM

O=C(O)C[C@H](NC(=O)Nc1cccn(Cc2ccccc2Cl)c1=O)c1ccc2c(c1)CCO2
IC50 (Table 4, 30 minutes at 37° C.): 40 nM

Cc1cn(Cc2ccccc2Cl)c(=O)c(NC(=O)N[C@@H](CC(=O)O)c2cccc(-c3ccccc3C(F)(F)F)c2)c1O
IC50 [2]: 157 nM
